Laboratory results published in patent US20210169892A1, “MODULATORS OF THE INTEGRATED STRESS PATHWAY” (Calico Life Sciences LLC, priority 2017, published 2021).

Test system: HEK293T cells carrying the ATF4 luciferase reporter
Assay: ATF4-Luc assay (in vitro model of vanishing white matter disease)
Type: cell-based
Settings: Homo sapiens, HEK-293T; HEK293T cells with ATF4 luciferase reporter, 1 μg/mL tunicamycin, 7 hours, One Glo luminescence
Protocol: In order to test exemplary compounds of the invention in a cellular context, a stable VWMD cell line was first constructed. The ATF4 reporter was prepared by fusing the human full-length ATF4 5′-UTR (NCBI Accession No. BC022088.2) in front of the firefly luciferase (FLuc) coding sequence lacking the initiator methionine as described in Sidrauski et al (eLife 2013). The construct was used to produce recombinant retroviruses using standard methods and the resulting viral supernatant was used to transduce HEK293T cells, which were then subsequently selected with puromycin to generate a stable cell line.
HEK293T cells carrying the ATF4 luciferase reporter were plated on polylysine coated 384-well plates (Greiner Bio-one) at 30,000 cells per well. Cells were treated the next day with 1 μg/mL tunicamycin and 200 nM of a compound of Formula (I) for 7 hours. Luminescence was measured using One Glo (Promega) as specified by the manufacturer. Cells were maintained in DMEM with L-glutamine supplemented with 10% heat-inactivated FBS (Gibco) and Antibiotic-Antimycotic solution (Gibco).
Table 2 below summarizes the EC50 data obtained using the ATF4-Luc assay for exemplary compounds of the invention.

| SMILES | EC50 |
| --- | --- |
| Cc1nn(C)cc1S(=O)(=O)N1CC(C(=O)NC23CC(NC(=O)COc4ccc(Cl)c(F)c4)(C2)C3)Oc2ccc(Cl)cc21 (centres unmarked) [Compound 173, 6-chloro-N-{3-[2-(4-chloro-3-fluorophenoxy)acetamido]bicyclo[1.1.1]pentan-1-yl}-4-(1,3-dimethyl-1H-pyrazole-4-sulfonyl)-3,4-dihydro-2H-1,4-benzoxazine-2-carboxamide] | 500 to 2000 nM |
| O=C(COc1ccc(Cl)c(F)c1)NC12CCC(NC(=O)C3CNc4cc(Cl)ccc4O3)(CC1)C[C@@H]2O (stereo partly drawn) [Compound 114, 6-chloro-N-{(3S)-4-[2-(4-chloro-3-fluorophenoxy)acetamido]-3-hydroxybicyclo[2.2.2]octan-1-yl}-3,4-dihydro-2H-1,4-benzoxazine-2-carboxamide] | < 10 nM |
| O=C(COc1ccc(Cl)c(F)c1)NC12CCC(NC(=O)[C@@H]3CCc4cc(F)ccc4O3)(CC1)[C@@H](O)C2 [Compound 201, (2S)—N-{(2S)-4-[2-(4-chloro-3-fluorophenoxy)acetamido]-2-hydroxybicyclo[2.2.2]octan-1-yl}-6-fluoro-3,4-dihydro-2H-1-benzopyran-2-carboxamide] | < 10 nM |
| Cc1ncc(S(=O)(=O)N2CC(C(=O)NC34CC(NC(=O)COc5ccc(Cl)c(F)c5)(C3)C4)Oc3ccc(Cl)cc32)n1C (centres unmarked) [Compound 137, 6-chloro-N-{3-[2-(4-chloro-3-fluorophenoxy)acetamido]bicyclo[1.1.1]pentan-1-yl}-4-(1,2-dimethyl-1H-imidazole-5-sulfonyl)-3,4-dihydro-2H-1,4-benzoxazine-2-carboxamide] | > 2000 nM |
| O=C(COc1ccc(Cl)c(F)c1)NC12CC(NC(=O)C3CN(C(=O)c4ccncc4)c4cc(Cl)ccc4O3)(C1)C2 (centres unmarked) [Compound 169, 6-chloro-N-{3-[2-(4-chloro-3-fluorophenoxy)acetamido]bicyclo[1.1.1]pentan-1-yl}-4-(pyridine-4-carbonyl)-3,4-dihydro-2H-1,4-benzoxazine-2-carboxamide] | 250 to 500 nM |
| O=C(COc1ccc(Cl)c(F)c1)NC12CC(NC(=O)C3CNc4cc(Cl)ccc4O3)(C1)C2 (centres unmarked) [Compound 113, 6-chloro-N-{3-[2-(4-chloro-3-fluorophenoxy)acetamido]bicyclo[1.1.1]pentan-1-yl}-3,4-dihydro-2H-1,4-benzoxazine-2-carboxamide] | < 10 nM |
| CN1C[C@@H](C(=O)NC23CC(NC(=O)COc4ccc(Cl)c(F)c4)(C2)C3)Oc2ccc(Cl)cc21 (single isomer, unassigned) [Compound 104] | < 10 nM |
| O=C(COc1ccc(Cl)c(F)c1)NC12CC(NC(=O)C3CC(NCCO)c4cc(Cl)ccc4O3)(C1)C2 (centres unmarked) [Compound 188, 6-chloro-N-{3-[2-(4-chloro-3-fluorophenoxy)acetamido]bicyclo[1.1.1]pentan-1-yl}-4-[(2-hydroxyethyl)amino]-3,4-dihydro-2H-1-benzopyran-2-carboxamide] | 10 to 50 nM |
| O=C(COc1ccc(Cl)c(F)c1)NC12CC(NC(=O)C3CCc4cc(Cl)ccc4O3)(C1)C2 (centres unmarked) [Compound 204, 6-chloro-N-{3-[2-(4-chloro-3-fluorophenoxy)acetamido]bicyclo[1.1.1]pentan-1-yl}-3,4-dihydro-2H-1-benzopyran-2-carboxamide] | < 10 nM |
| O=C(COc1ccc(Cl)c(F)c1)NC12CC(NC(=O)C3CN(C(=O)C4(F)CC4)c4cc(Cl)ccc4O3)(C1)C2 (centres unmarked) [Compound 140, 6-chloro-N-{3-[2-(4-chloro-3-fluorophenoxy)acetamido]bicyclo[1.1.1]pentan-1-yl}-4-(1-fluorocyclopropane-1-carbonyl)-3,4-dihydro-2H-1,4-benzoxazine-2-carboxamide] | 50 to 250 nM |
| O=C(COc1ccc(Cl)c(F)c1)NC12CC(NC(=O)C3CN(C(=O)c4ccc(OC(F)(F)F)cc4)c4cc(Cl)ccc4O3)(C1)C2 (centres unmarked) [Compound 143, 6-chloro-N-{3-[2-(4-chloro-3-fluorophenoxy)acetamido]bicyclo[1.1.1]pentan-1-yl}-4-[4-(trifluoromethoxy)benzoyl]-3,4-dihydro-2H-1,4-benzoxazine-2-carboxamide] | 500 to 2000 nM |
| O=C(NC12CC(NC(=O)C3COc4cc(Cl)c(Cl)cc4O3)(C1)C2)c1ccc(OC(F)(F)F)cn1 (centres unmarked) [Compound 132, N-{3-[(6,7-dichloro-2,3-dihydro-1,4-benzodioxine-2-carbonyl)amino]bicyclo[1.1.1]pentan-1-yl}-5-(trifluoromethoxy)pyridine-2-carboxamide] | 50 to 250 nM |
| O=C(COc1ccc(Cl)c(F)c1)NC12CC(NC(=O)C3CN(C(=O)C4CC4(F)F)c4cc(Cl)ccc4O3)(C1)C2 (centres unmarked) [Compound 176, 6-chloro-N-{3-[2-(4-chloro-3-fluorophenoxy)acetamido]bicyclo[1.1.1]pentan-1-yl}-4-(2,2-difluorocyclopropane-1-carbonyl)-3,4-dihydro-2H-1,4-benzoxazine-2-carboxamide] | 250 to 500 nM |
| O=C(COc1ccc(Cl)c(F)c1)NC12CC(NC(=O)[C@@H]3CNc4cc(Cl)ccc4O3)(C1)C2 (single isomer, unassigned) [Compound 103] | < 10 nM |
| O=C(COc1ccc(Cl)c(F)c1)NC12CC(NC(=O)C3CN(C(=O)C4CCOCC4)c4cc(Cl)ccc4O3)(C1)C2 (centres unmarked) [Compound 151, 6-chloro-N-{3-[2-(4-chloro-3-fluorophenoxy)acetamido]bicyclo[1.1.1]pentan-1-yl}-4-(oxane-4-carbonyl)-3,4-dihydro-2H-1,4-benzoxazine-2-carboxamide] | 500 to 2000 nM |
| CSN1CC(C(=O)NC23CC(NC(=O)COc4ccc(Cl)c(F)c4)(C2)C3)Oc2ccc(Cl)cc21 (centres unmarked) [Compound 172, 6-chloro-N-{3-[2-(4-chloro-3-fluorophenoxy)acetamido]bicyclo[1.1.1]pentan-1-yl}-4-(methylsulfanyl)-3,4-dihydro-2H-1,4-benzoxazine-2-carboxamide] | < 10 nM |
| O=C(COc1ccc(Cl)c(F)c1)NC12CCC(NC(=O)[C@H]3COc4cc(Cl)ccc4O3)(CC1)C[C@@H]2O [Compound 115, (2R)-6-chloro-N-{(3S)-4-[2-(4-chloro-3-fluorophenoxy)acetamido]-3-hydroxybicyclo[2.2.2]octan-1-yl}-2,3-dihydro-1,4-benzodioxine-2-carboxamide] | < 10 nM |
| O=C(COc1ccc(Cl)c(F)c1)NC12CC(NC(=O)[C@@H]3CCc4cc(F)ccc4O3)(C1)C2 [Compound 121, (2S)—N-{3-[2-(4-chloro-3-fluorophenoxy)acetamido]bicyclo[1.1.1]pentan-1-yl}-6-fluoro-3,4-dihydro-2H-1-benzopyran-2-carboxamide] | < 10 nM |
| COCCC(=O)N1CC(C(=O)NC23CC(NC(=O)COc4ccc(Cl)c(F)c4)(C2)C3)Oc2ccc(Cl)cc21 (centres unmarked) [Compound 181, 6-chloro-N-{3-[2-(4-chloro-3-fluorophenoxy)acetamido]bicyclo[1.1.1]pentan-1-yl}-4-(3-methoxypropanoyl)-3,4-dihydro-2H-1,4-benzoxazine-2-carboxamide] | 10 to 50 nM |
| C[C@]1(C(=O)NC23CC(NC(=O)COc4ccc(Cl)c(F)c4)(C2)C3)COc2cc3c(cc21)OC(F)(F)O3 [Compound 131, (7R)—N-{3-[2-(4-chloro-3-fluorophenoxy)acetamido]bicyclo[1.1.1]pentan-1-yl}-2,2-difluoro-7-methyl-6,7-dihydro-2H-furo[2,3-f][1,3]benzodioxole-7-carboxamide] | 500 to 2000 nM |
| O=C(COc1ccc(Cl)c(F)c1)NC12CC(NC(=O)C3CN(S(=O)(=O)c4ccc(F)cc4)c4cc(Cl)ccc4O3)(C1)C2 (centres unmarked) [Compound 166, 6-chloro-N-{3-[2-(4-chloro-3-fluorophenoxy)acetamido]bicyclo[1.1.1]pentan-1-yl}-4-(4-fluorobenzene-1-sulfonyl)-3,4-dihydro-2H-1,4-benzoxazine-2-carboxamide] | 500 to 2000 nM |
| Cc1oncc1C(=O)N1CC(C(=O)NC23CC(NC(=O)COc4ccc(Cl)c(F)c4)(C2)C3)Oc2ccc(Cl)cc21 (centres unmarked) [Compound 153, 6-chloro-N-{3-[2-(4-chloro-3-fluorophenoxy)acetamido]bicyclo[1.1.1]pentan-1-yl}-4-(5-methyl-1,2-oxazole-4-carbonyl)-3,4-dihydro-2H-1,4-benzoxazine-2-carboxamide] | 10 to 50 nM |
| O=C(COc1ccc(Cl)c(F)c1)NC12CC(NC(=O)[C@@H]3C[C@H](O)c4cc(Cl)ccc4O3)(C1)C2 (single isomer, unassigned) [Compound 195] | < 10 nM |
| O=C(COc1ccc(Cl)c(F)c1)NC12CC(NC(=O)C3COc4ccccc4O3)(C1)C2 (centres unmarked) [Compound 122, N-{3-[2-(4-chloro-3-fluorophenoxy)acetamido]bicyclo[1.1.1]pentan-1-yl}-2,3-dihydro-1,4-benzodioxine-2-carboxamide] | 10 to 50 nM |
| O=C(COc1ccc(Cl)c(F)c1)NC12CC(NC(=O)C3CN(C(=O)CCCC(F)(F)F)c4cc(Cl)ccc4O3)(C1)C2 (centres unmarked) [Compound 167, 6-chloro-N-{3-[2-(4-chloro-3-fluorophenoxy)acetamido]bicyclo[1.1.1]pentan-1-yl}-4-(5,5,5-trifluoropentanoyl)-3,4-dihydro-2H-1,4-benzoxazine-2-carboxamide] | 250 to 500 nM |
| O=C(COc1ccc(Cl)c(F)c1)NC12CC(NC(=O)C3CN(C(=O)CC(F)(F)F)c4cc(Cl)ccc4O3)(C1)C2 (centres unmarked) [Compound 182, 6-chloro-N-{3-[2-(4-chloro-3-fluorophenoxy)acetamido]bicyclo[1.1.1]pentan-1-yl}-4-(3,3,3-trifluoropropanoyl)-3,4-dihydro-2H-1,4-benzoxazine-2-carboxamide] | 50 to 250 nM |
